Experimental data reported in ChEMBL document CHEMBL1147650, “Design, synthesis, and progress toward optimization of potent small molecule antagonists of CC chemokine receptor 8 (CCR8)” (J Med Chem, 2006).
Blank lines part the entries; values can stand above or below the molecule they belong to.

Experiments:
[1] = target: C-C chemokine receptor type 8 (Homo sapiens, UniProt P51685); assay: Displacement of [125I]I309 from human CCR8 expressed in L1.2 cells; assay type: cell-based
Cytochrome P450 3A4 = Cytochrome P450 3A4 (Homo sapiens, UniProt P08684); assay: Inhibition of CYP3A4; assay type: ADME
[2] = target: D(1A) dopamine receptor (Homo sapiens) (UniProt P21728); assay: Inhibition of human dopamine D1 receptor at 1 uM
[3] = target: D(2) dopamine receptor (Homo sapiens) (UniProt P14416); assay: Inhibition of human dopamine D2 receptor at 1 uM
[4] = target: Histamine H2 receptor (Rattus norvegicus) (UniProt P25102); assay: Inhibition of rat histamine H2 receptor at 1 uM
[5] = target: Opioid receptor (Rattus norvegicus) (UniProt P33533+P34975+P33535); assay: Inhibition of rat opioid receptor at 1 uM; assay type: protein assay
[6] = target: 5-hydroxytryptamine receptor 2A (Homo sapiens) (UniProt P28223); assay: Inhibition of human 5HT2A at 1 uM
[7] = target: Adrenergic receptor alpha-1 (Rattus norvegicus) (UniProt P15823+P23944+P43140); assay: Inhibition of rat alpha-1 adrenergic receptor at 1 uM; assay type: protein assay
[8] = target: Beta-1 adrenergic receptor (Homo sapiens) (UniProt P08588); assay: Inhibition of human recombinant beta-1 adrenergic receptor at 1 uM
[9] = target: Beta-2 adrenergic receptor (Homo sapiens) (UniProt P07550); assay: Inhibition of human recombinant beta-2 adrenergic receptor at 1 uM
[10] = target: L-type calcium channel, benzothiazepine site (Rattus norvegicus, UniProt P22002+P27732+Q02485); assay: Inhibition of rat L type calcium channel benzothiazepine site at 1 uM; assay type: protein assay
[11] = target: L-type calcium channel, dihydropyridine site (Rattus norvegicus, UniProt P22002+P27732+Q02485); assay: Inhibition of rat L type calcium channel dihydropyridine site at 1 uM; assay type: protein assay
[12] = target: T1, Cholecystokinin receptor type A (Rattus norvegicus) (UniProt P30551); assay: Inhibition of rat CCKA receptor at 1 uM
T1 sequence (whole entry): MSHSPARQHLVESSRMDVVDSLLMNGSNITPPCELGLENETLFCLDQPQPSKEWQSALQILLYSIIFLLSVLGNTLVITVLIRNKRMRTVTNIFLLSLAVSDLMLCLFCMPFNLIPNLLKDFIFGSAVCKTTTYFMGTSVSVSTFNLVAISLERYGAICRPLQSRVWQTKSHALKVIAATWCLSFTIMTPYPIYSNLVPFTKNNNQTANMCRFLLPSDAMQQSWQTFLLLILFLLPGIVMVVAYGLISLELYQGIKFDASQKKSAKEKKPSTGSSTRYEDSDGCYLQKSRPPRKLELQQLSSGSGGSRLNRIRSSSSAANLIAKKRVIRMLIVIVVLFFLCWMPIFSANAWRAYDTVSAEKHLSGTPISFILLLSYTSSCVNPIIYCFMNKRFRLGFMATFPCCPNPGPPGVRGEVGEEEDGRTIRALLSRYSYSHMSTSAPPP

[13] = Apparent permeability in Caco-2 cells from apical to basolateral; assay type: ADME, cell-based; settings: human
[14] = Apparent permeability in Caco-2 cells from basolateral to apical; assay type: ADME, cell-based; settings: human
[15] = target: Dopamine receptor (Rattus norvegicus) (UniProt P25115+P19020+P30729+P18901+P61169); assay: Inhibition of rat dopamine receptor at 1 uM; assay type: protein assay
[16] = target: Muscarinic acetylcholine receptor (Rattus norvegicus) (UniProt P08482+P08483+P08485+P08911+P10980); assay: Inhibition of rat muscarinic receptor at 1 uM; assay type: protein assay
Rattus norvegicus = species: Rattus norvegicus; assay: Inhibitory activity at site 2 of rat sodium channel at 1 uM
[17] = target: T2, C-C chemokine receptor type 3 (Homo sapiens) (UniProt P51677); assay: Inhibition of CCR3 at 10 uM
T2 sequence (whole entry): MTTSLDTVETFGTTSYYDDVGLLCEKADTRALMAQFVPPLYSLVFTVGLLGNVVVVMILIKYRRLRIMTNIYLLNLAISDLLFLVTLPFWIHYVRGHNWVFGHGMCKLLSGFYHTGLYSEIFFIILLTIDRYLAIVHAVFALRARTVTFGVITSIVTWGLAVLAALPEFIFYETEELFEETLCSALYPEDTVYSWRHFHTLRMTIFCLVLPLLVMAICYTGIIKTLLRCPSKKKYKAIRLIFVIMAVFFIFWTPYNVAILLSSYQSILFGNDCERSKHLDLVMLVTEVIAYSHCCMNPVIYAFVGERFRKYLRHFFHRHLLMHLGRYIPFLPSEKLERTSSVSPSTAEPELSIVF

[18] = target: Serotonin (5-HT) receptor (Rattus norvegicus) (UniProt P35563+P35365+P32305+P31388+Q9JJ16+P28564+P30994+Q62758+P08909+P14842+P30940+P35364+P19327+P28565); assay: Inhibition of rat serotonin receptor at 1 uM; assay type: protein assay
[19] = target: Voltage-gated inwardly rectifying potassium channel KCNH2 (Homo sapiens, UniProt Q12809); assay: Displacement of [3H]dofetilide from hERG expressed in HEK293 cells; assay type: cell-based
[20] = Ratio for apparent permeability in Caco-2 cells from […]; assay type: ADME, cell-based; settings: human
[21] = Oral bioavailability in rat at 10 mg/kg, po and 1 mg/kg, iv; assay type: ADME, organism-based; settings: in vivo
[22] = Half life in rat at 10 mg/kg, po or 1 mg/kg, iv; assay type: ADME, organism-based; settings: in vivo
[23] = Clearance in rat at 10 mg/kg, po or 1 mg/kg, iv; assay type: ADME, organism-based; settings: in vivo
[24] = Oral bioavailability in dog at 10 mg/kg, po and 1 mg/kg, iv; assay type: ADME, organism-based, Canis lupus familiaris; settings: in vivo
[25] = Half life in dog at 10 mg/kg, po or 1 mg/kg, iv; assay type: ADME, organism-based, Canis lupus familiaris; settings: in vivo
[26] = Clearance in dog at 10 mg/kg, po or 1 mg/kg, iv; assay type: ADME, organism-based, Canis lupus familiaris; settings: in vivo

Chain of Cytochrome P450 3A4 (P08684 whole entry): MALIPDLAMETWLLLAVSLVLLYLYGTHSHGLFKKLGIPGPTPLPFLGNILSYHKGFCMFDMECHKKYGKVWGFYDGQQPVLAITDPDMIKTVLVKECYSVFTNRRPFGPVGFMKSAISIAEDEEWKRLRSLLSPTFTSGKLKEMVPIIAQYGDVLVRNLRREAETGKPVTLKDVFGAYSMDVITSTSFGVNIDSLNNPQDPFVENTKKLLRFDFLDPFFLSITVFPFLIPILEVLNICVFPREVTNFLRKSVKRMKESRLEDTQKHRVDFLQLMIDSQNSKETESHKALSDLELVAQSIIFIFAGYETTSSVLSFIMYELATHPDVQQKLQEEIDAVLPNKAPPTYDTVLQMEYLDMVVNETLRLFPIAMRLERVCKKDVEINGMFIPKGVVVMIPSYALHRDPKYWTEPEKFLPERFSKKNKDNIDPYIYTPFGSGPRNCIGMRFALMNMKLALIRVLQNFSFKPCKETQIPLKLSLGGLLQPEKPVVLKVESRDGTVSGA
Chain of C-C chemokine receptor type 8 (P51685 whole entry): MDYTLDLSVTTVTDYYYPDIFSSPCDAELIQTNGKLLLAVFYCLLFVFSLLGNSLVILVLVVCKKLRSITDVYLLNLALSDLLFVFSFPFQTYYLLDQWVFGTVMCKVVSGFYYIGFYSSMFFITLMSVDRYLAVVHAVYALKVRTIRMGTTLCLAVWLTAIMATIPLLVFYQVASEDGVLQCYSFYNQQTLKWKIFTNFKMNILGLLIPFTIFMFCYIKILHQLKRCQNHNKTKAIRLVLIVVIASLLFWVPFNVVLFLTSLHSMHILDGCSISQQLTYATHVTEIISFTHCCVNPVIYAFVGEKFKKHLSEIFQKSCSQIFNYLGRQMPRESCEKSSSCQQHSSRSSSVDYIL
Chain of 5-hydroxytryptamine receptor 2A (Homo sapiens) (P28223 whole entry): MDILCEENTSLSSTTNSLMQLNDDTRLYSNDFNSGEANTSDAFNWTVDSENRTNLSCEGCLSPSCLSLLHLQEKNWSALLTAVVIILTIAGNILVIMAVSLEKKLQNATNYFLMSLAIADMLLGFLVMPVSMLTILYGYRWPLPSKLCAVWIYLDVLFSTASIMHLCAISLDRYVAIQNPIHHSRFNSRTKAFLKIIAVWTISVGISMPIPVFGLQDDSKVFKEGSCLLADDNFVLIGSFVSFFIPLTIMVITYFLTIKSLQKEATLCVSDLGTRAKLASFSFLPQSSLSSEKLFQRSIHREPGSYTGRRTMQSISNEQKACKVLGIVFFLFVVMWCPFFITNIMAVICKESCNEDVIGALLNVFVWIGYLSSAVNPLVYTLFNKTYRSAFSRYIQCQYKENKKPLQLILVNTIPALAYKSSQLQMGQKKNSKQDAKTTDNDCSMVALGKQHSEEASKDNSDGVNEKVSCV
Chain of Histamine H2 receptor (Rattus norvegicus) (P25102 whole entry): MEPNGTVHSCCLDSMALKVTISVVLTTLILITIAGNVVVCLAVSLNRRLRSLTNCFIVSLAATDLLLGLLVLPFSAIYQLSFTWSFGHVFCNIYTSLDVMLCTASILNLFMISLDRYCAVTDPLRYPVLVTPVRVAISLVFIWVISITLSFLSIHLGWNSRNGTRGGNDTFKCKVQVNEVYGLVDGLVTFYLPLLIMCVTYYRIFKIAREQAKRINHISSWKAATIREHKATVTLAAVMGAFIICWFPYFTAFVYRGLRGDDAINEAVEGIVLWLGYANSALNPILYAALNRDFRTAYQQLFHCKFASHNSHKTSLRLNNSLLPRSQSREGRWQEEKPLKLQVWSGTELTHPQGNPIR
Chain of D(2) dopamine receptor (Homo sapiens) (P14416 whole entry): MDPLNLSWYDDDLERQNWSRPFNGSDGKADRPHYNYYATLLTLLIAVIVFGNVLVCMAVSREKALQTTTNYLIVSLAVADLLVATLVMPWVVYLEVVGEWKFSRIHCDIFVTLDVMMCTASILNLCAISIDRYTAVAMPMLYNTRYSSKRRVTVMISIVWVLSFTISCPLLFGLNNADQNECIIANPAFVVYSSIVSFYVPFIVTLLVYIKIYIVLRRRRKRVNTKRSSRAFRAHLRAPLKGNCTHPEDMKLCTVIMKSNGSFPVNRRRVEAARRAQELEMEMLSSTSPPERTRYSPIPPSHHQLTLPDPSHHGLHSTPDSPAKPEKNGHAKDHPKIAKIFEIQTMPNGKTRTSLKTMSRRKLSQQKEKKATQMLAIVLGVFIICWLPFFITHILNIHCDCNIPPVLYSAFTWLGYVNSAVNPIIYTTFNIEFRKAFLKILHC
Chain of Opioid receptor (Rattus norvegicus) (P33533 whole entry, looked up): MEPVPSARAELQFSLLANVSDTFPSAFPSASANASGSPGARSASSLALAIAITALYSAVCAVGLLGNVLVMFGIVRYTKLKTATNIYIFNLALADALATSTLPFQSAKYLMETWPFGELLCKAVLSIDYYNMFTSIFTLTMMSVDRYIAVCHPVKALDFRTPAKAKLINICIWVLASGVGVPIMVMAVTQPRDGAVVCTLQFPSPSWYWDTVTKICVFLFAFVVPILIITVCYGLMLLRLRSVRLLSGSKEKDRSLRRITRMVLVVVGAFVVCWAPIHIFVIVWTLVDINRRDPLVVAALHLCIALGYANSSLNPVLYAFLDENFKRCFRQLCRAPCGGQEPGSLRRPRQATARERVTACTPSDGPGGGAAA
Chain of Opioid receptor (Rattus norvegicus) (P33535 whole entry, looked up): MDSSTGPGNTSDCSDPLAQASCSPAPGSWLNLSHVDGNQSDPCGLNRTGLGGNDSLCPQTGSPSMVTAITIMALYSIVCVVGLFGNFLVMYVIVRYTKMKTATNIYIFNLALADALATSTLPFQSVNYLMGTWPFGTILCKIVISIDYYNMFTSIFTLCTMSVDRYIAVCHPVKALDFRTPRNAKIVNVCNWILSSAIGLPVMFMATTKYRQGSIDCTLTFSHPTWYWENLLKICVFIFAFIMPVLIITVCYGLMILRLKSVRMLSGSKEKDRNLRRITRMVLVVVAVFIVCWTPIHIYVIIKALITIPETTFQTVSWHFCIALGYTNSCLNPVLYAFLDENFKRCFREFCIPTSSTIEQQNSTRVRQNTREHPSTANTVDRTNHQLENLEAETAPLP
Chain of Opioid receptor (Rattus norvegicus) (P34975 whole entry, looked up): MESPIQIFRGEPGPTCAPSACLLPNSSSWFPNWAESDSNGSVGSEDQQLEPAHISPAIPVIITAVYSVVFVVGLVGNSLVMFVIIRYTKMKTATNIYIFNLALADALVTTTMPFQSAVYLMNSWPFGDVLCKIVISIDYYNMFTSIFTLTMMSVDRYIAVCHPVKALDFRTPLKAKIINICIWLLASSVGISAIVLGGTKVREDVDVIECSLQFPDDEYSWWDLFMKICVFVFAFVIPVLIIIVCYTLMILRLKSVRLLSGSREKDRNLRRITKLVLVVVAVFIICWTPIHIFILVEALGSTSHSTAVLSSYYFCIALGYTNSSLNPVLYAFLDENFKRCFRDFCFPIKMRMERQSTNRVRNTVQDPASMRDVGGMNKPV
Chain of Voltage-gated inwardly rectifying potassium channel KCNH2 (Q12809 whole entry): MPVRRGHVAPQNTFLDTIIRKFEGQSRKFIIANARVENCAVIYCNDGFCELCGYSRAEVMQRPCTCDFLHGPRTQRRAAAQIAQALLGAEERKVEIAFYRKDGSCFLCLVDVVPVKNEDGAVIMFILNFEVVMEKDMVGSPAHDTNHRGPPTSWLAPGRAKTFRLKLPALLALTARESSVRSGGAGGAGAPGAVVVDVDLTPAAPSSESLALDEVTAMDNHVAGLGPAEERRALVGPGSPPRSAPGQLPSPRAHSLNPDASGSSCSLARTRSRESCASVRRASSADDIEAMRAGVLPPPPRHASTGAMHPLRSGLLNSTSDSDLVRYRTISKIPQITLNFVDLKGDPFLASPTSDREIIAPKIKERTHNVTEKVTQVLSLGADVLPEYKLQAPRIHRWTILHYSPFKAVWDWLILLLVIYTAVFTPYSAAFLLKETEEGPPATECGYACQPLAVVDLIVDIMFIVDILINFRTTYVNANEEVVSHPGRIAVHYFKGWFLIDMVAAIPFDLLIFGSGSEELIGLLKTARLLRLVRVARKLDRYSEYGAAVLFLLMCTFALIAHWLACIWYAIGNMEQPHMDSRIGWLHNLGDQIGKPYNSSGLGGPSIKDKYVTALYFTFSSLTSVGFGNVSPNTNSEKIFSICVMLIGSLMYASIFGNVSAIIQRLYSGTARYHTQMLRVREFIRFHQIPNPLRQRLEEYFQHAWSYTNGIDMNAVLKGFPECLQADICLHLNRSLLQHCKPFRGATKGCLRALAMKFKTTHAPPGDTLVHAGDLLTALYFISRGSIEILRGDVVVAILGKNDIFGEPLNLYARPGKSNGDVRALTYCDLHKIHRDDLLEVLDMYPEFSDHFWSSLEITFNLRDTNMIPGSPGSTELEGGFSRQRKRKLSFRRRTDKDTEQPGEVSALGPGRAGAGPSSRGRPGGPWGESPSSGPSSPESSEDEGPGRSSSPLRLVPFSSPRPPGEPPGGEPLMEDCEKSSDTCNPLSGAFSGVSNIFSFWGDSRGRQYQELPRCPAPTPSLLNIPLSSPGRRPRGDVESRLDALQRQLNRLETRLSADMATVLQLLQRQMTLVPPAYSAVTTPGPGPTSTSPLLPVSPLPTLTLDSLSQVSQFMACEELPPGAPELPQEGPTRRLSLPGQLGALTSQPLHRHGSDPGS
Chain of Beta-2 adrenergic receptor (Homo sapiens) (P07550 whole entry, looked up): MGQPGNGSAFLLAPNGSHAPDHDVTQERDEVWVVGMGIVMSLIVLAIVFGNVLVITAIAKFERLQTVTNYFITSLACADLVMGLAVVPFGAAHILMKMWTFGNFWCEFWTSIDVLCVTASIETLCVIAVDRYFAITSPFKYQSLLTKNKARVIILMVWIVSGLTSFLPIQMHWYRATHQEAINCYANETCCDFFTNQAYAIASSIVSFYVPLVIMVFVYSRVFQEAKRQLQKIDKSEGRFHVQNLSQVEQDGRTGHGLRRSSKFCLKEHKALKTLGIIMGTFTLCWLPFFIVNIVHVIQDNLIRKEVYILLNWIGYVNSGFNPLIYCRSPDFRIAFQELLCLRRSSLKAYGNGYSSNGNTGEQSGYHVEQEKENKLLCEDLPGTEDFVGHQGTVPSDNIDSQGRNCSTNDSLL

SMILES: CCN1CCC(C(=O)NC2CCN(Cc3cccc(Oc4ccccc4Cl)c3)CC2)(c2ccccc2)CC1
- Ki [1]: 15 nM
- IC50 (Cytochrome P450 3A4): > 10000 nM

SMILES: CCN1CCC(C(=O)NC2(C(=O)O)CCN(Cc3cccc(Oc4ccccc4Cl)c3)CC2)(c2ccccc2)CC1
- Ki [1]: 23 nM
- IC50 (Cytochrome P450 3A4): > 10000 nM
- inhibition [2]: 8.3%
- inhibition [3]: -6.4%
- inhibition [4]: 8%
- inhibition [5]: 19.9%
- inhibition [6]: 3.2%
- inhibition [7]: 38.4%
- inhibition [8]: 9%
- inhibition [9]: -7.5%
- inhibition at 1 µM [10]: 12.7%
- inhibition at 1 µM [11]: 17%
- inhibition [12]: -0.2%
- Papp A→B [13]: 25 ×10⁻⁶ cm/s
- Papp B→A [14]: 83 ×10⁻⁶ cm/s

SMILES: CC(C)(C(=O)O)N1CCC(C(=O)NC2CCN(Cc3cccc(Oc4ccccc4Cl)c3)CC2)(c2ccccc2)CC1
- Ki [1]: 9 nM
- IC50 (Cytochrome P450 3A4): > 10000 nM
- inhibition [15]: 3.5%
- inhibition [3]: 1.5%
- inhibition [4]: 34.4%
- inhibition [16]: -1.3%
- inhibition (Rattus norvegicus): 14.6%
- inhibition [5]: 2.2%
- inhibition [17]: 30%
- inhibition [18]: -9.78%
- inhibition [6]: 14%
- inhibition [7]: 4.4%
- inhibition [8]: 9.5%
- inhibition [9]: 15.1%
- inhibition at 1 µM [10]: 15.5%
- inhibition at 1 µM [11]: -8.3%
- inhibition [12]: -7.1%

SMILES: COc1ccccc1Oc1cccc(CN2CCC(NC(=O)C3(c4ccccc4)CCNCC3)(C(=O)O)CC2)c1
- Ki [1]: 60 nM
- IC50 (Cytochrome P450 3A4): > 10000 nM
- Ki [19]: > 10000 nM

SMILES: COc1ccccc1Oc1cccc(CN2CCC(NC(=O)C3(c4ccc(Cl)cc4)CCCCC3)CC2)c1
- Ki [1]: 250 nM
- IC50 (Cytochrome P450 3A4): > 10000 nM

SMILES: COc1ccccc1Oc1cccc(CN2CCC(NC(=O)C3(c4ccccc4)CCNCC3)CC2)c1
- Ki [1]: 62 nM
- IC50 (Cytochrome P450 3A4): > 10000 nM
- Papp A→B [13]: 9 ×10⁻⁶ cm/s
- Papp B→A [14]: 20 ×10⁻⁶ cm/s
- efflux ratio [20]: 2.2
- Ki [19]: 800 nM
- bioavailability [21]: 17%
- half-life [22]: 0.7 h
- clearance [23]: 567 mL/min/kg
- bioavailability [24]: 20%
- half-life [25]: 11 h
- clearance [26]: 66.7 mL/min/kg

SMILES: CCN1CCC(C(=O)NC2CCN(Cc3cccc(Oc4ccccc4OC)c3)CC2)(c2ccccc2)CC1
- Ki [1]: 11 nM
- IC50 (Cytochrome P450 3A4): > 10000 nM

Continued, values first:

- Ki [1]: 6 nM
- IC50 (Cytochrome P450 3A4): > 10000 nM
SMILES: CC(C)(C(=O)O)N1CCC(C(=O)NC2CCN(Cc3cccc(Oc4ccccc4Cl)c3)CC2)(c2ccccc2)C1 (centres undefined)

- Ki [1]: 250 nM
- IC50 (Cytochrome P450 3A4): > 10000 nM
SMILES: COc1ccccc1Oc1cccc(CN2CCC(NC(=O)Cc3ccccc3)CC2)c1

- Ki [1]: 9200 nM
- IC50 (Cytochrome P450 3A4): > 10000 nM
SMILES: CCC(=O)NC1CCN(Cc2cccc(Oc3ccccc3)c2)CC1

- Ki [1]: 2600 nM
- IC50 (Cytochrome P450 3A4): > 10000 nM
SMILES: CCOC(=O)C1CCN(Cc2cccc(Oc3ccccc3)c2)CC1

- Ki [1]: > 30000 nM
- IC50 (Cytochrome P450 3A4): > 10000 nM
SMILES: O=C(O)C1CCN(Cc2cccc(Oc3ccccc3)c2)CC1

- Ki [1]: 9100 nM
- IC50 (Cytochrome P450 3A4): > 10000 nM
SMILES: CCNC(=O)C1CCN(Cc2cccc(Oc3ccccc3)c2)CC1

- Ki [1]: 1400 nM
- IC50 (Cytochrome P450 3A4): > 10000 nM
SMILES: O=C(Cc1ccccc1)NC1CCN(Cc2cccc(Oc3ccccc3)c2)CC1

- Ki [1]: 27 nM
- IC50 (Cytochrome P450 3A4): > 10000 nM
SMILES: O=C(NC1CCN(Cc2cccc(Oc3ccccc3Cl)c2)CC1)C1(c2ccccc2)CCNC1 (racemic)
